Test results: PMC5915149, “The role of oxidative stress in activity of anticancer thiosemicarbazones” (Oncotarget, 2018)
Read-outs that look alike come from different tables or passages of the source.

What was measured:
Type in all cases: cell-based, human
[1] = system: HCT116 cells; experiment: Cell cycle assay (Muse Cell-Cycle Kit); conditions: HCT116, TSC 1 µM, 48 h
Protocol: The HCT116 cells were seeded in 3 cm Petri dishes (Nunc) at a density of 0.25·10^6 cells/well and incubated at 37° C for 24 h. […] After a 48 h treatment, assays were performed using a Muse Cell-Cycle Kit (Millipore) according to the manufacturer’s instructions. Briefly, cells were collected, washed with cold PBS and centrifuged at 300 g. Then, the cells were fixed in ice cold 70% ethanol and stored at –20° C overnight. Afterwards, the cells were centrifuged and resuspended in 200 μL of Muse™ Cell Cycle Reagent and incubated for 30 min at room temperature in the dark. After staining, the cells were processed for cell cycle analysis using a Muse Cell Analyzer (Millipore). The experiments were performed at least three times.

[2] = system: HCT116; experiment: MTS antiproliferative assay, HCT116 (with or without added metal ions); conditions: 96 h
Method in brief: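 Cells seeded at 3,500/well, left 24 h at 37°C, then exposed to compounds for 96 h, optionally with 20 µM CuSO4, FeSO4 or FeCl3 added. Viability by MTS absorbance at 490 nm after 1 h; IC50 taken as concentration reducing proliferation to 50% of untreated control.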

[3] = system: HCT116 cells; experiment: Time dependent measurement of ROS level; conditions: 1 µM; 3, 6, 9, 12, 24 h
Protocol: To determine the intracellular levels of ROS, HCT116 cells were seeded onto black 96-well plates (Corning) at a density of 9,000 cells/well and incubated at 37° C. After an overnight incubation, the solutions of the tested compounds: 1a-c, 2 a-b, 3 a-c, Dp44mT (1 μM) and DOX (5 μM) were added and incubated for 3, 6, 9, 12, and 24 h in a kinetic experiment. The generation of ROS was measured using a CellROX® Green Reagent (Molecular Probes™). Additionally, the quantity of cells in each well was determined using Hoechst 33342 (Molecular Probes™). The solutions of the tested compounds were removed and 100 µL of CellROX Green Reagent and Hoechst 33342 at a final concentration of 5 μM were added to each well. Then, the cells were incubated for 30 min at 37° C. The fluorescence was measured using a multi-plate reader (Synergy 4, Bio Tek) at 485 nm excitation and a 520 nm emission for CellROX Green Reagent and a 345 nm excitation laser and a 485 nm emission filter for Hoechst 33342. The experiments were performed three to four times. ROS levels were expressed as the percentage of the control cells level.

[4] = system: cdc2; experiment: Western blot of cdc2; conditions: HCT116, 1 µM
Method in brief: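 HCT116 cells exposed to TSC (1 μM) or DOX (5 μM) for 24 or 48 h, lysed in RIPA with protease/phosphatase inhibitors. 20 μg protein per lane blotted, probed overnight at 4 °C with 1:1000 primary antibodies, β-actin loading control; ECL detection with densitometry, at least three repeats.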

S=C(NN=C(c1ccccn1)c1ccccn1)N1CCN(c2ccccc2)CC1 [Compound 3a]
cells in S phase [1]: 33–35% | cells in G2/M phase ([1]; untreated 7%): 17% | IC50 ([2]; 20 µM CuSO4 added, read-out: Activity - IC50 HCT116+ Cu^2+): 0.68 ± 0.15 nM | IC50 ([2]; 20 µM FeCl3 added, read-out: Activity - IC50 HCT116+ Fe^3+): 2.07 ± 0.78 nM | level of ROS, normalized to untreated cells [3]: strongest effect | expression of cdc2 protein (densitometric analysis) [4]: increased the expression
